# Test results published in ChEMBL document CHEMBL1201862, “PubChem BioAssay data set” (2004).
# Active and inactive are the calls of the source.
# What was measured:
# Estrogen receptor beta [1] = target: T1, Estrogen receptor beta (Homo sapiens, UniProt Q92731); test: ERβ–SRC-3 coactivator interaction inhibitors, confirmation, orthogonal assay, biochemical, ELISA, streptavidin-HRP readout (AID 1060)
# [2] = target: T2, Induced myeloid leukemia cell differentiation protein Mcl-1 (Homo sapiens, UniProt Q07820); format: functional
# T2 sequence (Q07820 whole entry): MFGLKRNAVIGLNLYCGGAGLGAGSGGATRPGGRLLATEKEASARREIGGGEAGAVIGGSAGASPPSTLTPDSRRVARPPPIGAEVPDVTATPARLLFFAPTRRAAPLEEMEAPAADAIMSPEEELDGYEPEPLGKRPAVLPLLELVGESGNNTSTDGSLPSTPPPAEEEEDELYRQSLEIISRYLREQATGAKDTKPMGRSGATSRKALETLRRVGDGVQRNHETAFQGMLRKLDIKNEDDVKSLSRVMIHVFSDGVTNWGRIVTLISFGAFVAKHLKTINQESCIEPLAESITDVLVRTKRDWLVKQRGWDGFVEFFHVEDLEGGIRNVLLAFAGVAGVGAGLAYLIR
# Ephrin type-A receptor 4 = Ephrin type-A receptor 4 (Mus musculus, UniProt Q03137); test: inhibitors of EphA4 binding to KYL peptide, primary screen, biochemical, colorimetric, mouse EphA4 (AID 689); format: functional
# Chain of Ephrin type-A receptor 4 (Q03137 whole entry): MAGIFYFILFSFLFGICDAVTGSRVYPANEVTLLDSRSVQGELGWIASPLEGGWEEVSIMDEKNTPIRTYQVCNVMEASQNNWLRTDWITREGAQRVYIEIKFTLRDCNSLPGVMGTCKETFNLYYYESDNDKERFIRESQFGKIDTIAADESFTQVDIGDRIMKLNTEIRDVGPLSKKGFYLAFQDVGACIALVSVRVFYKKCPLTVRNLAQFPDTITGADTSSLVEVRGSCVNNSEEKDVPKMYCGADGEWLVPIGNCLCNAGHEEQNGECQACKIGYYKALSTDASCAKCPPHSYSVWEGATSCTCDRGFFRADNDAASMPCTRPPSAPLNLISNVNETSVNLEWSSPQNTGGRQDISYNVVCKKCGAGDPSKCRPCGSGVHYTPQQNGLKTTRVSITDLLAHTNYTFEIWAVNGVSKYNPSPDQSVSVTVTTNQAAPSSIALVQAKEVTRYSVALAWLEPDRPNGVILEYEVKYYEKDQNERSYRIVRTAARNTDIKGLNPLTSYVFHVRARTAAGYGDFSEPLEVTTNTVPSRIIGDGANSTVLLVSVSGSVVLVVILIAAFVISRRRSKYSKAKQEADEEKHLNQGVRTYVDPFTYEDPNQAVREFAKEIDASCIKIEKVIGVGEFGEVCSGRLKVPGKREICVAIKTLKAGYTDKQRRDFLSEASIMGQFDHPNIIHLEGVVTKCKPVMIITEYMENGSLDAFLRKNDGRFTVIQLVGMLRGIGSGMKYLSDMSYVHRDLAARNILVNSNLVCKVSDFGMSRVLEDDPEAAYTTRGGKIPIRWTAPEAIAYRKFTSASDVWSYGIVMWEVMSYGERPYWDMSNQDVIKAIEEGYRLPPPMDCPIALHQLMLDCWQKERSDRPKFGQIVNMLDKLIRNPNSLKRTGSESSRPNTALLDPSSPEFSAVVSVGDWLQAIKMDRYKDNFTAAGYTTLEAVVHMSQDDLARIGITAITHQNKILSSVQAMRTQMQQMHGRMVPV
# Vero = test: host cell cytotoxicity of antiviral hits, dose response, cytotoxicity control for West Nile virus antiviral project, secondary assay (AID 1650); format: functional; settings: Chlorocebus sabaeus
# [3] = target: Solute carrier family 12 member 2/member 5 (Homo sapiens, UniProt P55011+Q9H2X9); test: KCC2 and NKCC1 inhibition by rubidium flux, cell-based, NKCC1 counter-screen (AID 1734); format: functional, HEK293
# [4] = target: T2, Induced myeloid leukemia cell differentiation protein Mcl-1; test: MCL1-BIM BH3 interaction inhibitors, dose response, biochemical, fluorescence polarization, BIM-BH3 peptide, 1536-well (AID 2217)
# Bcl-2-like protein 10 = target: T3, Bcl-2-like protein 10 (Homo sapiens, UniProt Q9HD36); test: displacers of TR3 peptide from Bcl-B, primary screen, selectivity assay for Bfl-1 inhibitor project, biochemical, fluorescence polarization, FITC-TR3 peptide (AID 748);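 also: fluorescence polarization from a fluorescein-labelled TR3 peptide binding purified Bcl-B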
# T3 sequence (Q9HD36 whole entry): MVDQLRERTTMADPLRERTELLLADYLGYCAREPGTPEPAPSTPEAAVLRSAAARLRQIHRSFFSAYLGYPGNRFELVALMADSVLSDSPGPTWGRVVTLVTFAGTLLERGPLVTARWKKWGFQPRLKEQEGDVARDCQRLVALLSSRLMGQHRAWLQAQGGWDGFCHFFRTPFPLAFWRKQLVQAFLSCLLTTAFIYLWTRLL
# [5] = target: T4, Dual specificity protein phosphatase 6 (Rattus norvegicus, UniProt Q64346); test: MKP-3 phosphatase inhibitors, primary screen, biochemical, rat enzyme, in vitro (AID 425)
# T4 sequence (Q64346 whole entry): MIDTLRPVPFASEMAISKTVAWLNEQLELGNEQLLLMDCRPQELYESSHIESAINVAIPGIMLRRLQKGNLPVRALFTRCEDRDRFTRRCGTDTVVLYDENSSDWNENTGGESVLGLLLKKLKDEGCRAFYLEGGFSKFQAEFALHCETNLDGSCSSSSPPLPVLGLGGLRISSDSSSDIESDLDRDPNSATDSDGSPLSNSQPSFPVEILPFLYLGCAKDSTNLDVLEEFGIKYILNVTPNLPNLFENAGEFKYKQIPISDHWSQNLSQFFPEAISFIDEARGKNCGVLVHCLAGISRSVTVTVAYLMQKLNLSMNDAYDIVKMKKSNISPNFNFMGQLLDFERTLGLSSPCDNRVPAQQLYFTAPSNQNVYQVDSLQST
# [6] = target: T5, Tyrosine-protein phosphatase non-receptor type 7 (Homo sapiens, UniProt P35236); test: inhibitors of human HePTP phosphatase, […], biochemical, absorbance, leukemia target (AID 521); format: functional
# T5 sequence (P35236 whole entry): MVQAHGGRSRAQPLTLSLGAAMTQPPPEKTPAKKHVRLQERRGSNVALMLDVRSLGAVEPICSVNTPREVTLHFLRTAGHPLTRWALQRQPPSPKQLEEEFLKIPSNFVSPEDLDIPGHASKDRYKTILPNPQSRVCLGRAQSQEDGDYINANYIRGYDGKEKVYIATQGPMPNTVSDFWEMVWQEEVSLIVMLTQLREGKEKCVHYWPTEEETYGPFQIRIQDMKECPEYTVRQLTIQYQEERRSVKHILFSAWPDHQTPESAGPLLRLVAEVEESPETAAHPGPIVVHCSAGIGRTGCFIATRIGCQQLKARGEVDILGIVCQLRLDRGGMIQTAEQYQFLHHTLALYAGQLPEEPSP
# Bcl-2-like protein 1 = Bcl-2-like protein 1 (Homo sapiens, UniProt Q07817); test: BCL-XL inhibitors, dose response, selectivity assay for MCL1 inhibitor project, biochemical, fluorescence polarization, 1536-well (AID 2218)
# Chain of Bcl-2-like protein 1 (Q07817 whole entry): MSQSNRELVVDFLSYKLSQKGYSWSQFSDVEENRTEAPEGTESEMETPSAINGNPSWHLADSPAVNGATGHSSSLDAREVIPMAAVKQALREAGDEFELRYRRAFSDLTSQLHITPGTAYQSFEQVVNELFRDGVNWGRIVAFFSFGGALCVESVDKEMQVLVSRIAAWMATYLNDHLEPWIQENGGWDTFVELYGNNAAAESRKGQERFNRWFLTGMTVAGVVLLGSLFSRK
# Estrogen receptor beta [7] = target: T1, Estrogen receptor beta
# [8] = M. tuberculosis H37Rv growth inhibitors, H37Rv strain (AID 1626); format: functional
# T1 sequence (Q92731 whole entry): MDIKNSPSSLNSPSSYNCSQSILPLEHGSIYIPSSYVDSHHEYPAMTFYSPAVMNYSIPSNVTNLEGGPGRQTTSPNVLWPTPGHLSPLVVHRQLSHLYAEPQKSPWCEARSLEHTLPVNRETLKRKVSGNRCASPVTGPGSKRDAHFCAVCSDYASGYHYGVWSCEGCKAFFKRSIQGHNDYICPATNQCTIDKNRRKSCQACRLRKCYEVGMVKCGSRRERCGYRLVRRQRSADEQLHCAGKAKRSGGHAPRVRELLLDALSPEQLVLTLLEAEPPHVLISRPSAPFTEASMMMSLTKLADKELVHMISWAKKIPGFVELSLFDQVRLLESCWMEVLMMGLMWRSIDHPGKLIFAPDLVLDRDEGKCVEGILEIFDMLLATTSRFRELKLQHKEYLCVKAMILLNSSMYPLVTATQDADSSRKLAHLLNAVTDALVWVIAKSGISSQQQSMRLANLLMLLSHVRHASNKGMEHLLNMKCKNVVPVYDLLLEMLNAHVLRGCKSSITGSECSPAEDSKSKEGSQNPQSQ
smiles,measurement,setting,value
Cc1nc(C)c(C(=O)Nc2nc3c(C)cccc3s2)o1,IC50,Estrogen receptor beta [1],0.588 µM (not active)
same,IC50,[2],3.36 µM (active)
same,IC50,Ephrin type-A receptor 4,11.3 µM (active)
CC(C)n1nc(C(=O)Nc2cccc(S(=O)(=O)NCc3ccco3)c2)c2ccccc2c1=O,CC50,Vero,3.81 µM (active)
Cc1ccc(-c2ccc(S(=O)(=O)NCC3CCCO3)cc2)cc1 (stereo not drawn),IC50,[3],7.7 µM (active)
COC(=O)c1ccccc1NC(=O)c1noc2c1CCC2,IC50,Estrogen receptor beta [1],9.45 µM (not active)
same,IC50,[4],13.5 µM (not active)
same,IC50,Bcl-2-like protein 10,16.5 µM (active)
same,IC50,[5],> 10 µM (not active)
same,IC50,[6],2.33 µM (active)
same,IC50,Bcl-2-like protein 1,> 109 µM (not active)
same,IC50,Estrogen receptor beta [7],2.18 µM (active)
Cn1nc(C(F)(F)F)c(-c2ccc(Br)cc2)c1NC(=O)c1cccnc1,IC50,[8],> 100 µM (active)
